From patent publication US20240301001A1, “PEPTIDE-CONTAINING COMPOSITION” (Kyoto University, priority 2021, published 2024)

Legend:
[1] = Fat mass (peritesticular and mesenteric fat) after five-week oral administration; assay type: in vivo, mice; details: after five-week oral administration 0.3 mg/kg
Procedure: (§1) After the five-week oral administration of YHIEPV in Test Example 4, the blood was collected under anesthesia. Subsequently, the blood was centrifuged, and the serum was collected. The leptin level in the serum was determined by ELISA (according to the manufacturer's protocol) (N=10). The fat mass (peritesticular fat and mesenteric fat) was also measured at the same time as blood sampling (N=9). […] The data were analyzed by t-test. […] The error bars represent standard error (n=9-10).

[2] = previously discovered, PTL 2; cited from earlier work
Active Rap1 = Active Rap1 pull-down assay in brain; assay type: in vivo, mice; details: 0.3 mg/kg oral for 5 days
Procedure: (§2) Male mice were raised for at least one month on a high-fat diet (60% kcal fat) and were orally administered with YHIEPV (0.3 mg/kg) for 5 days, and hypothalamic and brain samples were then collected. The expression levels of genes associated with leptin resistance (SOCS-3, PTP1B, and TCPTP) and inflammatory cytokines (IL-6, IL1β, TNFα) in the hypothalamus were measured by RT-qPCR. Active Rap1 in the brain was quantified by using the Active Rap1 Pull-down assay kit and the Detection Kit according to the manufacturer's protocol (N=4). […] The data were analyzed by t-test. […] The error bars represent standard error (n=4).

δ opioid receptor = target: T1, δ opioid receptor (Mus musculus, UniProt P32300); test: Impact of naltrindole on high-fat diet intake suppression induced by oral YHIEPV; assay type: in vivo, mice; details: YHIEPV oral plus naltrindole intraperitoneal; food intake 4 hours later
T1 construct: from tissue; host or cells: living male mice (whole animal)
T1 sequence (P32300 whole entry): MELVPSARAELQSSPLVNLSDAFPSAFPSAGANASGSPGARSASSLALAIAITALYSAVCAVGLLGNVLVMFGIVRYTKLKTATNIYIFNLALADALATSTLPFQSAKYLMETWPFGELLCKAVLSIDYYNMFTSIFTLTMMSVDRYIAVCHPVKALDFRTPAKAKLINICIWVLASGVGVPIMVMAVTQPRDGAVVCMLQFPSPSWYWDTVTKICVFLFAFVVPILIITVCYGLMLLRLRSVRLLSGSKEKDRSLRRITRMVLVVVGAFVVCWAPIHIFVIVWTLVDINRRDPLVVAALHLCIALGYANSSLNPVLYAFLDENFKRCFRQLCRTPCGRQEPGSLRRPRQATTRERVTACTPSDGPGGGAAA
Procedure: (§3) Male mice raised on a high-fat diet (60% kcal fat) were administered under overnight fasting conditions with YHIEPV (oral administration) and naltrindole (intraperitoneal administration), which is a δ opioid receptor inhibitor, or HS024 (intracerebroventricular administration), which is an MC4 receptor inhibitor, and the amount of food intake was measured 4 hours later (N=13-15). The δ opioid receptor and MC4 receptor are receptors involved in feeding behavior. […] The data were analyzed by one-way analysis of variance, followed by multiple comparisons by Tukey's test. […] The error bars represent standard error (n=13-15).

[3] = tested on: phosphorylated STAT3 signal; test: Leptin resistance induced by Forskolin (Rap1 pathway stimulation) in hypothalamic organ culture; assay type: cell-based; details: Forskolin 20 μM and YHIEPV 100 μM 6 hours, leptin 60 nM 1 hour
Procedure: A hypothalamic organ culture system was preincubated with Forskolin (20 μM) and YHIEPV (100 μM) for 6 hours, followed by leptin stimulation (60 nM) for 1 hour. Subsequently, formalin fixation was performed and the phosphorylated STAT3 signal was detected by an immunostaining chemistry method (N=6-7). Forskolin is known to induce leptin resistance via the Rap1 activation pathway. […] The data were analyzed by one-way analysis of variance, followed by multiple comparisons by Tukey's test. […] The error bars represent standard error (n=5-9).

leptin = test: Serum leptin level by ELISA after five-week oral administration; assay type: in vivo, mice; details: after five-week oral administration 0.3 mg/kg
Procedure: as §1

[4] = High-fat diet intake after oral administration under overnight fasting; assay type: in vivo; details: male mice raised on high-fat diet (60% kcal fat)
Procedure: (§4) Male mice raised on a high-fat diet (60% kcal fat) were orally administered with the digested product under overnight fasting conditions, and the amount of food intake was measured over time (N=14-15). […] The data were analyzed by two-way analysis of variance, followed by multiple comparisons by Tukey's test. […] The error bars represent standard error (n=14-15).
The data were analyzed by two-way analysis of variance, followed by multiple comparisons by Tukey's test. […] The error bars represent standard error (n=9).
as §4, with “Rubisco-derived peptide YHIEPV” for “the digested product”, “(N=11).” for “(N=14-15).”, “the Bonferroni” for “Tukey's”, “(n=11).” for “(n=14-15).”
The data were analyzed by two-way analysis of variance, followed by multiple comparisons by Tukey's test. […] The error bars represent standard error (n=7-8).
The data were analyzed by two-way analysis of variance, followed by multiple comparisons by Tukey's test. In FIG. 10, the error bars represent standard error (n=5-7).

[5] = Anti-obesity effect of intracerebroventricularly administered leptin with oral YHIEPV; assay type: in vivo, mice; details: YHIEPV 0.3 mg/kg oral, leptin 0.5 μg intracerebroventricular
Procedure: A guide cannula was placed in the lateral ventricle of male mice raised on a high-fat diet (60% kcal fat) for at least one month, and a recovery period of at least 1 week was then provided. Subsequently, the body weight change and the amount of food intake were measured after the addition of YHIEPV (0.3 mg/kg, oral administration) and leptin (0.5 μg, intracerebroventricular administration) (N=10-12). […] The data were analyzed by two-way analysis of variance, followed by multiple comparisons by Tukey's test. […] The error bars represent standard error (n=10-12).

SOCS-3 = test: Hypothalamic gene expression by RT-qPCR after high-fat diet; assay type: in vivo, mice; details: hypothalamus, 0.3 mg/kg oral for 5 days
Procedure: as §2

TCPTP = test: as above; assay type: in vivo, mice; details: hypothalamus, 0.3 mg/kg oral for 5 days
Procedure: as §2

IL-6 = test: as above; assay type: in vivo, mice; details: hypothalamus, 0.3 mg/kg oral for 5 days
Procedure: as §2

PTP1B = test: as above; assay type: in vivo, mice; details: hypothalamus, 0.3 mg/kg oral for 5 days
Procedure: as §2

TNFα = test: as above; assay type: in vivo, mice; details: hypothalamus, 0.3 mg/kg oral for 5 days
Procedure: as §2

IL1β = test: as above; assay type: in vivo, mice; details: hypothalamus, 0.3 mg/kg oral for 5 days
Procedure: as §2

[6] = tested on: phosphorylated STAT3 signal; test: Intracellular leptin sensitivity in hypothalamic organ culture (phosphorylated STAT3 immunostaining); assay type: cell-based; details: peptide 100 μM preincubation 24 hours, leptin 30 nM 1 hour
Procedure: Subsequently, formalin fixation was performed and the phosphorylated STAT3 signal was detected by an immunostaining chemistry method (N=6-7). […] The data were analyzed by one-way analysis of variance, followed by multiple comparisons by Tukey's test. […] The error bars represent standard error (n=6-8).

[7] = Long-term oral administration: body weight gain caused by high-fat diet; assay type: in vivo; details: 0.3 mg/kg oral once a day, male mice on high-fat diet
Procedure: Male mice raised for at least one month on a high-fat diet (60% kcal fat) were orally administered with YHIEPV (0.3 mg/kg) once a day. The body weight and the amount of food intake were measured daily, and the amount of food intake was calculated as cumulative food intake (N=10). […] The data were analyzed by two-way analysis of variance, followed by multiple comparisons by the Bonferroni test. […] The error bars represent standard error (n=10).

MC4 receptor = target: T2, MC4 receptor (Mus musculus, UniProt P56450); test: Impact of HS024 on high-fat diet intake suppression induced by oral YHIEPV; assay type: in vivo, mice; details: YHIEPV oral plus HS024 intracerebroventricular; food intake 4 hours later
T2 construct: from tissue; host or cells: living male mice (whole animal)
T2 sequence (P56450 whole entry): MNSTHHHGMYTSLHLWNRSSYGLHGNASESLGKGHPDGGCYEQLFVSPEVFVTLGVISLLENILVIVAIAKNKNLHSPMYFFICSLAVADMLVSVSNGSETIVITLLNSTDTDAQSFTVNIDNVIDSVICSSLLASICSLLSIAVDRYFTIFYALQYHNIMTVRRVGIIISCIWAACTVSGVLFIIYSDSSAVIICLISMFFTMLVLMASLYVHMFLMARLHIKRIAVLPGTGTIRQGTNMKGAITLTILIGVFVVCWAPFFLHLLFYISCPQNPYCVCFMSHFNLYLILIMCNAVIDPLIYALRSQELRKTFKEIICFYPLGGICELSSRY
Procedure: as §3

Substance | fat mass [1] | anxiolytic effect [2] | expression level of active Rap1 (Active Rap1) | effect of suppressing high-fat diet intake in presence of δ opioid receptor inhibitor (δ opioid receptor) | leptin resistance induced by Forskolin [3] | blood leptin level (leptin) | high-fat diet intake (amount of food intake over time) [4] | anti-obesity effect of intracerebroventricularly administered leptin (body weight change, food intake) [5] | expression level of SOCS-3 (SOCS-3) | expression level of TCPTP (TCPTP) | expression level of IL-6 (IL-6) | expression level of PTP1B (PTP1B) | expression level of TNFα (TNFα) | expression level of IL1β (IL1β) | intracellular leptin sensitivity in the hypothalamus [6] | body weight gain caused by a high-fat diet [7] | effect of suppressing high-fat diet intake in presence of MC4 receptor inhibitor (MC4 receptor)
YHIEPV (listed as Spinacia oleracea) | trend toward decrease | anxiolytic effect | significantly decreased | inhibited | improved | decreased | suppressed high-fat diet intake | enhanced | significantly decreased | significantly decreased | decreasing trend | decreasing trend | decreasing trend | significantly decreased | enhanced | suppressed body weight gain | inhibited
YKLTY (listed as Spinacia oleracea) [Rubisco-derived peptide, synthesized by solid-phase Fmoc method; contained in green leaf Rubisco digested product B] |  |  |  |  |  |  | suppressed high-fat diet intake |  |  |  |  |  |  |  | enhanced |  | 
